The target in this assay is hGYS1 enzyme (recombinant hGYS1/GN1 protein) (Homo sapiens (Human), UniProt P13807). Nature of the assay: GYS1 coupled enzyme assay (PK/LDH). The assay is classed as biochemical. To be noted: hGYS1/GN1 50 nM, UDP-Glucose 0.8 mM, G6P 1 mM; geometric mean of at least 2 runs. An excerpt: The GYS1 coupled enzyme assay is a kinetic biochemical assay that indirectly quantifies the rate of glycogen synthesis by coupling the conversion of GYS1 substrate UDP-glucose into UDP with downstream enzymatic reactions. UDP is released from UDP-glucose as glucose monomers are linked into the growing glycogen strand by GYS1. The coupled assay then proceeds with pyruvate kinase utilizing UDP and phospho(enol)pyruvate (PEP) to form pyruvate. Lactate dehydrogenase then converts pyruvate and NADH into lactate and NAD+. Oxidation of NADH to NAD+ can be measured continuously with a plate reader by quantifying the decrease in NADH absorbance at 340 nm over time.
Sequence of hGYS1 enzyme (recombinant hGYS1/GN1 protein) (P13807 whole entry): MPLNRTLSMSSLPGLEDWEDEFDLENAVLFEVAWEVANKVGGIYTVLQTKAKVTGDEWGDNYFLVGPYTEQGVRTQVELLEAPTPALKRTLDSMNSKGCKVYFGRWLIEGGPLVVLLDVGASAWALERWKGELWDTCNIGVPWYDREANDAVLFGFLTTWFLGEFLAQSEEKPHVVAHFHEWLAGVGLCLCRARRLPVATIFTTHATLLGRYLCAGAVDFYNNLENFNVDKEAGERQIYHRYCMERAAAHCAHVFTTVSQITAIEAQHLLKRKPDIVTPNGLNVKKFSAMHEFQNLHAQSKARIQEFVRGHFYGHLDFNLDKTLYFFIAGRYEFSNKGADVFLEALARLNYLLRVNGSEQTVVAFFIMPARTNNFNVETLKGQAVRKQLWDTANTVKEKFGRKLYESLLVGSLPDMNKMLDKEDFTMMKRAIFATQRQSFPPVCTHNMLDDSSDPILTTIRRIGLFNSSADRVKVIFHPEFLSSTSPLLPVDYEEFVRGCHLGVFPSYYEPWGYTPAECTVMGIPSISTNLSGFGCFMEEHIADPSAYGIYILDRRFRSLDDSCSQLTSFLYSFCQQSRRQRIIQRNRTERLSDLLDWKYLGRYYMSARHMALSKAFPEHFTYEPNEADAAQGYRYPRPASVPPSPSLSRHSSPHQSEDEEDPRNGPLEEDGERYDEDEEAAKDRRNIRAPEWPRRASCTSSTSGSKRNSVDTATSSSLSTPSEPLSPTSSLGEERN
Sequence of hGYS1 enzyme (recombinant hGYS1/GN1 protein) (P46976 whole entry partner): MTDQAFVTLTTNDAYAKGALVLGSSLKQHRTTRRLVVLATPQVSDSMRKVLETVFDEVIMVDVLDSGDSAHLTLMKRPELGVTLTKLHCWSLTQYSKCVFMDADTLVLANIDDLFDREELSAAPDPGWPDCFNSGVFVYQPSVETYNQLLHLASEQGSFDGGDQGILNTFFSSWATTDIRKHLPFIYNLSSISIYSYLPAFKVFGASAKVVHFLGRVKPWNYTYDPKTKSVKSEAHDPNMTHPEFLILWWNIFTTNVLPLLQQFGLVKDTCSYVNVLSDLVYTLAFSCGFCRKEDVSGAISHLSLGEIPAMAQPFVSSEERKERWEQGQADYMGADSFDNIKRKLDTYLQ
Compounds that inhibit the hGYS1 enzyme and, subsequently, the downstream conversion of NADH to NAD+, were tested using assay ready plates (black, clear bottom 384 well plates) in a final DMSO reaction volume of 2.5% DMSO. The Assay Buffer contained 50 mM Tris pH 7.5, 2 mM MgCl2, and 100 mM KCl. Fresh stocks of BSA at a final concentration of 0.02% and TCEP at 1 mM were added before splitting buffer into hGYS1 buffer and substrate buffer. To the hGYS1 buffer, rabbit liver glycogen was added at a final concentration of 0.2% glycogen. Glucose-6-Phosphate was added at 1 mM, recombinant hGYS1/GN1 protein was added at 50 nM to the substrate buffer, phosphoenolpyruvate (PEP) was added at 2 mM, UDP-Glucose was added at 0.8 mM, NADH) was added at 0.6 mM, and Pyruvate Kinase/Lactate Dehydrogenase was added at 20 units/mL. The reaction was initiated by mixing hGYS1 buffer and substrate buffer at a 1:1 ratio. Both buffers were plated using a liquid dispensing device with hGYS1 buffer plated first followed by the substrate buffer. Plates were spun briefly to eliminate air bubbles and are immediately read in continuous mode at an absorbance of 340 nm, for 10 time points in one-minute increments, for a total of 10 minutes. The slope from these 10 time points was normalized to the positive and negative control wells. The duplicate % inhibition values are then averaged and fit to a Hill equation for dose response according to the Levenberg-Marquardt algorithm with the Hill equation maximum set to 100 and the minimum set to 0.
Unless otherwise specified, IC50 values are reported as the geometric mean of at least 2 assay runs on separate days. Each run represents the average of a technical replicate, where each compound was assayed twice in the same plate. […] A superscript “#” symbol in Table 2 indicates results from a single assay run.
As a reminder, the IC50 is the concentration needed to halve the response being measured. As for `CC(=O)N1CC(Oc2ccc(C(=O)N3C[C@H](F)C[C@H]3C(=O)N[C@@H](c3ccccc3)c3ccc(C(C)C)cc3)cc2)C1` [Compound 112, (2S,4R)-1-{4-[(1-acetylazetidin-3-yl)oxy]benzoyl}-4-fluoro-N-[(S)-phenyl[4-(propan-2-yl)phenyl]methyl]pyrrolidine-2-carboxamide], the IC50 was 854 nM.

As for `CC(C)c1ccc([C@@H](NC(=O)[C@@H]2C[C@@H](F)CN2C(=O)C(=O)C2CC2)c2ccccc2)cc1` [Compound 113, (2S,4R)-1-(2-cyclopropyl-2-oxoacetyl)-4-fluoro-N-[(S)-phenyl[4-(propan-2-yl)phenyl]methyl]pyrrolidine-2-carboxamide], the 50% inhibitory concentration (IC50) was determined as 1040 nM.

Consider `CC(C)c1ccc([C@@H](NC(=O)[C@@H]2C[C@@H](F)CN2C(=O)C(=O)N(C)C)c2ccccc2)cc1` [Compound 115, (2S,4R)-1-[(dimethylcarbamoyl)carbonyl]-4-fluoro-N-[(S)-phenyl[4-(propan-2-yl)phenyl]methyl]pyrrolidine-2-carboxamide], for which the IC50 was 493 nM.

With `CC(=O)N1CC(CC(=O)N2C[C@H](F)C[C@H]2C(=O)N[C@@H](c2ccccc2)c2ccc(C(C)C)cc2)Oc2ccccc21` (stereo partly drawn) [Compound 116, (2S,4R)-1-[2-(4-acetyl-3,5-dihydro-2H-1,4-benzoxazin-2-yl)acetyl]-4-fluoro-N-[(S)-phenyl[4-(propan-2-yl)phenyl]methyl]pyrrolidine-2-carboxamide], the IC50 is 121 nM.

Consider `CC(Cn1cncn1)C(=O)N1C[C@H](F)C[C@H]1C(=O)N[C@@H](c1ccccc1)c1ccc(C(C)C)cc1` (stereo partly drawn) [Compound 120, (2S,4R)-4-fluoro-1-[2-methyl-3-(1H-1,2,4-triazol-1-yl)propanoyl]-N-[(S)-phenyl[4-(propan-2-yl)phenyl]methyl]pyrrolidine-2-carboxamide], for which the IC50 came to 343 nM.

As to `CC(C)c1ccc([C@@H](NC(=O)[C@@H]2C[C@@H](F)CN2C(=O)c2ccc3c(c2)NC(=O)CO3)c2ccccc2)cc1` [Compound 122, (2S,4R)-4-fluoro-1-(3-oxo-3,4-dihydro-2H-1,4-benzoxazine-6-carbonyl)-N-[(S)-phenyl[4-(propan-2-yl)phenyl]methyl]pyrrolidine-2-carboxamide], the IC50 stood at 989 nM.

Regarding `CC(C)c1ccc([C@@H](NC(=O)[C@@H]2C[C@@H](F)CN2C(=O)c2cccc(-n3cncn3)c2)c2ccccc2)cc1` [Compound 123, (2S,4R)-4-fluoro-N-[(S)-phenyl[4-(propan-2-yl)phenyl]methyl]-1-[3-(1H-1,2,4-triazol-1-yl)benzoyl]pyrrolidine-2-carboxamide], the IC50 is 1000 nM.

As to `CC(Oc1cccnc1)C(=O)N1C[C@H](F)C[C@H]1C(=O)N[C@@H](c1ccccc1)c1ccc(C(C)C)cc1` (stereo partly drawn) [Compound 124, (2S,4R)-4-fluoro-N-[(S)-phenyl[4-(propan-2-yl)phenyl]methyl]-1-[2-(pyridin-3-yloxy)propanoyl]pyrrolidine-2-carboxamide], the IC50 turned out to be 78 nM.

Turning to `Cc1cnn(C(C)C(=O)N2C[C@H](F)C[C@H]2C(=O)N[C@@H](c2ccccc2)c2ccc(C(C)C)cc2)c1` (stereo partly drawn) [Compound 127, (2S,4R)-4-fluoro-1-[2-(4-methyl-1H-pyrazol-1-yl)propanoyl]-N-[(S)-phenyl[4-(propan-2-yl)phenyl]methyl]pyrrolidine-2-carboxamide], the IC50 came out at 318 nM.

`CC(C)c1ccc([C@@H](NC(=O)[C@@H]2C[C@@H](F)CN2C(=O)c2cc3n(n2)CCCNC3=O)c2ccccc2)cc1` [Compound 131, (2S,4R)-4-fluoro-1-{4-oxo-4H,5H,6H,7H,8H-pyrazolo[1,5-a][1,4]diazepine-2-carbonyl}-N-[(S)-phenyl[4-(propan-2-yl)phenyl]methyl]pyrrolidine-2-carboxamide]: the IC50 was found to be 563 nM.

Take `CC(Cc1ccccn1)C(=O)N1C[C@H](F)C[C@H]1C(=O)N[C@@H](c1ccccc1)c1ccc(C(C)C)cc1` (stereo partly drawn) [Compound 132, (2S,4R)-4-fluoro-1-[2-methyl-3-(pyridin-2-yl)propanoyl]-N-[(S)-phenyl[4-(propan-2-yl)phenyl]methyl]pyrrolidine-2-carboxamide]: the IC50 came out at 99 nM.

For `CC(C)c1ccc([C@@H](NC(=O)[C@@H]2C[C@@H](F)CN2C(=O)C2CCC3CCC(=O)N3C2)c2ccccc2)cc1` (stereo partly drawn) [Compound 139, (2S,4R)-4-fluoro-1-(3-oxo-octahydroindolizine-6-carbonyl)-N-[(S)-phenyl[4-(propan-2-yl)phenyl]methyl]pyrrolidine-2-carboxamide], the IC50 was determined as 357 nM.

For the molecule `CC(=O)N1CC(F)(C(=O)N2C[C@H](F)C[C@H]2C(=O)N[C@@H](c2ccccc2)c2ccc(C(C)C)cc2)C1` [Compound 143, (2S,4R)-1-(1-acetyl-3-fluoroazetidine-3-carbonyl)-4-fluoro-N-[(S)-phenyl[4-(propan-2-yl)phenyl]methyl]pyrrolidine-2-carboxamide], the concentration for half-maximal inhibition (IC50) stood at 323 nM.

On to `CC(=O)N1C[C@H]2C[C@@]2(C(=O)N2C[C@H](F)C[C@H]2C(=O)N[C@@H](c2ccccc2)c2ccc(C(C)C)cc2)C1` [Compound 148, (2S,4R)-1-[(1S,5S)-3-acetyl-3-azabicyclo[3.1.0]hexane-1-carbonyl]-4-fluoro-N-[(S)-phenyl[4-(propan-2-yl)phenyl]methyl]pyrrolidine-2-carboxamide], for which the half-maximal inhibitory concentration (IC50) was 344 nM.

For `CC(=O)N1C[C@]2(C(=O)N3C[C@H](F)C[C@H]3C(=O)N[C@@H](c3ccccc3)c3ccc(C(C)C)cc3)CC1CO2` [Compound 150, (2S,4R)-1-[(1S)-5-acetyl-2-oxa-5-azabicyclo[2.2.1]heptane-1-carbonyl]-4-fluoro-N-[(S)-phenyl[4-(propan-2-yl)phenyl]methyl]pyrrolidine-2-carboxamide], the concentration for half-maximal inhibition (IC50) is 554 nM.

For the molecule `CC(=O)N1CCC(C)(C(=O)N2C[C@H](F)C[C@H]2C(=O)N[C@@H](c2ccccc2)c2ccc(C(C)C)cc2)C1` (stereo partly drawn) [Compound 152, (2S,4R)-1-(1-acetyl-3-methylpyrrolidine-3-carbonyl)-4-fluoro-N-[(S)-phenyl[4-(propan-2-yl)phenyl]methyl]pyrrolidine-2-carboxamide], the IC50 amounted to 132 nM.

As for `CC(=O)N1CCC[C@H](C(=O)N2C[C@H](F)C[C@H]2C(=O)N[C@@H](c2ccccc2)c2ccc(C(C)C)cc2)C1` [Compound 153, (2S,4R)-1-[(3S)-1-acetylpiperidine-3-carbonyl]-4-fluoro-N-[(S)-phenyl[4-(propan-2-yl)phenyl]methyl]pyrrolidine-2-carboxamide], the half-maximal inhibitory concentration (IC50) came out at 412 nM.

`CC(=O)N1CCC2(CC2C(=O)N2C[C@H](F)C[C@H]2C(=O)N[C@@H](c2ccccc2)c2ccc(C(C)C)cc2)C1` (stereo partly drawn) [Compound 156, (2S,4R)-1-{5-acetyl-5-azaspiro[2.4]heptane-1-carbonyl}-4-fluoro-N-[(S)-phenyl[4-(propan-2-yl)phenyl]methyl]pyrrolidine-2-carboxamide]: the IC50 came out at 304 nM.

As for `CC(=O)N1C2CCC1[C@@H](C(=O)N1C[C@H](F)C[C@H]1C(=O)N[C@@H](c1ccccc1)c1ccc(C(C)C)cc1)C2` (stereo partly drawn) [Compound 157, (2S,4R)-1-[(2S)-7-acetyl-7-azabicyclo[2.2.1]heptane-2-carbonyl]-4-fluoro-N-[(S)-phenyl[4-(propan-2-yl)phenyl]methyl]pyrrolidine-2-carboxamide], the concentration for half-maximal inhibition (IC50) is 392 nM.

As for `CC(=O)N1CCO[C@@H](C)[C@@H]1C(=O)N1C[C@H](F)C[C@H]1C(=O)N[C@@H](c1ccccc1)c1ccc(C(C)C)cc1` [Compound 159, (2S,4R)-1-[(2S,3R)-4-acetyl-2-methylmorpholine-3-carbonyl]-4-fluoro-N-[(S)-phenyl[4-(propan-2-yl)phenyl]methyl]pyrrolidine-2-carboxamide], the IC50 is 740 nM.

With `COC1(CC(=O)N2C[C@H](F)C[C@H]2C(=O)N[C@@H](c2ccccc2)c2ccc(C(C)C)cc2)CN(C(C)=O)C1` [Compound 161, (2S,4R)-1-[2-(1-acetyl-3-methoxyazetidin-3-yl)acetyl]-4-fluoro-N-[(S)-phenyl[4-(propan-2-yl)phenyl]methyl]pyrrolidine-2-carboxamide], the IC50 was determined as 374 nM.

For the molecule `CC(=O)N1CC2(CC(C(=O)N3C[C@H](F)C[C@H]3C(=O)N[C@@H](c3ccccc3)c3ccc(C(C)C)cc3)CO2)C1` (stereo partly drawn) [Compound 164, (2S,4R)-1-{2-acetyl-5-oxa-2-azaspiro[3.4]octane-7-carbonyl}-4-fluoro-N-[(S)-phenyl[4-(propan-2-yl)phenyl]methyl]pyrrolidine-2-carboxamide], the half-maximal inhibitory concentration (IC50) came to 467 nM.

(Values after patent US11814367B2, “Inhibitors of glycogen synthase 1 (GYS1) and methods of use thereof” (Maze Therapeutics, Inc., priority 2021, dated 2023).)
